A value given as a limit tells only on which side of the number the result lay.

Series [1] has as its system urine excreted by each kidney, mongrel dogs. The series is described as follows: Diuresis in anesthetized dogs, intravenous administration. The format is in vivo, dog (male and female mongrel). The conditions noted are these: i.v.; for urinary excretion / urinary flow increased to: 32.0 mg/kg; for dose dependency of diuretic effect, r: 2.0 up to 64.0 mg/kg. How it is done:
Experiments were performed in male and female mongrel dogs, anesthetized with pentobarbital. The body weight was between 9 and 11 kg. After laparotomy the proximal part of the ureters was canulated and the urine excreted by each kidney collected in periods of 10 minutes. Arterial and venous pressure were recorded throughout the experiment. At the beginning 1.5 ml/kg of a tempered saline solution were infused for one and a half hour. After constant urine-flow was reached, the diuretics were injected into the femoral vein. The initial dose was 2.0 mg/kg which was increased with the factor 2 up to 64.0 mg/kg. Two animals were used for each dose level.

The subject of series [2] is diuresis of conscious dogs. The series is described as follows: Diuresis in conscious dogs, intragastric administration. The settings on record: for maximal achievable effect on the diuresis (urine excretion): 25.0 mg/kg. It is filed as in vivo, dog (unanesthetized adult female Beagle). How it is done: Experiments were carried out in 5 unanesthetized adult female Beagle dogs, weighing 15 to 22 kg, which were trained to lie on a table without fixation. The animals were not episiotomized. A rubber catheter was introduced into the bladder and excreted urine was collected separately for each animal and the volume measured in 30 minute intervals. After a constant urine flow was achieved, test substances were administered by stomach tube. The diuretics were diluted with saline solution so that a constant volume of 25 ml/kg was reached. Three animals received the test substances and two served as controls. The lowest dose of the diuretics administered was 1.56 mg/kg. Dosages were increased by a factor of 2 up to 50 mg/kg.

A further series is described as follows: in vivo. The conditions noted are these: rat, iv.
The subject of the next series is mice. The series is described as follows: Acute toxicity in mice, intragastric. The format is in vivo, mouse. The conditions noted are these: aqueous solution, within 48 hours.
A further series relates to rats. The conditions noted are these: rat, in vivo.
The nature of series [3]: Toxicity (general statement). The conditions noted are these: in vivo.
Series [4] has as its system potassium excretion in dogs. The series is described as follows: Influence on potassium excretion (clearance experiments). The format is in vivo, dog. The settings on record: anesthetized dogs, with higher amounts of sodium excreted. How it is done: Animals were anesthetized by 30.0 mg/kg pentobarbital intravenously. At the beginning of the experiment one saline solution was infused within 1 hour. In the urine which was collected by using a bladder catheter besides other parameters potassium and sodium concentrations were determined by flame photometry.

Regarding `CCOC(=O)/C=C1\SC(N2CCCCC2)C(=O)N1C` (stereo not drawn) [Etozolin, ethyl-3-methyl-4-oxo-5-piperidino-Δ^2,α -thiazolidineacetate], in series [1], the “diuretic activity compared with 3282” value was “far less active”; the “urinary excretion / urinary flow increased to” value was found to be 2.25 ml/minute per animal; the “dose dependency of diuretic effect, r” value is 0.5583. In addition, in series [2], the “maximal achievable effect on the diuresis (urine excretion)” value is recorded as 7.8 ml/animal/min. The “effect of dose increase on urine excretion” value in series [2] (above 25.0 mg/kg) is given as “does not result in a further increase of urine excretion”. The 50% lethal dose (LD50) (commonly the dose at which mortality reaches 50%) in the series “in vivo” was determined as 56.6 mg/kg.
On to `CN1C(=O)C(N2CCCCC2)SC1=CC(=O)O` (stereo not shown) [Example 3282, (Z)-3-Methyl-4-oxo-5N-piperidino-thiazolidin-2-ylidene-acetic acid], for which the “dosage up to which none of the animals died” value with mice is ≥ 2,250 mg/kg. For the same molecule, the “dosage up to which no deaths were seen” value in the series on rats is recorded as ≥ 1,000 mg/kg. Further, the “acute toxicity (in words)” value in series [3] is “very favorable”. Also, in series [1], the “urinary excretion / urinary flow increased to” value is given as 16 ml/minute per animal and the “dose dependency of diuretic effect, r” value worked out at 0.8799. For the same molecule, the “increase of potassium excretion, Furosemide versus […]” value in series [4] is recorded as “by far more increased with Furosemide than with 3282”. Moreover, the “maximal achievable effect on the diuresis (urine excretion)” value in series [2] came out at 10.9 ml/animal/min.

(Values after patent publication US4012395A, “Process for preparing thiazolidinone acetic acid derivatives” (Warner-Lambert Company, priority 1974, dated 1977).)
